Data: patent US6130215A, “Piperazinylalkylthiopyrimidine derivatives, pharmaceutical compositions containing the same and a process for the preparation of the novel compounds” (Egis Gyoyszergyar RT, priority 1995, dated 2000)

Experiments:
[1] = molecular target: T1, 5-HT2C receptor (Sus scrofa, UniProt K7GSR7); test: 5-HT2C receptor binding ([3H]mesulergine, pig brain choroid plexus membrane preparation); details: tritiated mesulergine, 37° C., read-out: Inhibition of receptor binding of the radioactive ligand, 5-HT2C (Ki)
T1 construct: pig brain choroid plexus membrane preparation; from tissue; host or cells: pig brain choroid plexus membrane preparation
T1 sequence (K7GSR7 1-457): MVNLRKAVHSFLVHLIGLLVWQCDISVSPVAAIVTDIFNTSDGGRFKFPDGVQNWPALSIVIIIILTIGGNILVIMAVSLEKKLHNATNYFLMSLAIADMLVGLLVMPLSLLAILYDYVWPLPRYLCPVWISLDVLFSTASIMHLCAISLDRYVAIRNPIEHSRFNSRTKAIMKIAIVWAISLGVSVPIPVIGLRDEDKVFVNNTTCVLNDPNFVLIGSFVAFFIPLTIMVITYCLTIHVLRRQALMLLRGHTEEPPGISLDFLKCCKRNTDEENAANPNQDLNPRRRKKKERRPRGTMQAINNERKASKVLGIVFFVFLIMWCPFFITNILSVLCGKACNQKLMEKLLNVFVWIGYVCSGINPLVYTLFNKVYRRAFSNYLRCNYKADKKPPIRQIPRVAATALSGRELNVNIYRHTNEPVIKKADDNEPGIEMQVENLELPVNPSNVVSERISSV
Description: (§1) 5-HT2A and 5-HT2C receptor binding was measured according to the methods described by Leysen et al. /Mol. Pharmacol., 21, 301 (1981)/ and Pazos et al. /Eur. J. Pharmacol., 106, 539 (1985)/, respectively. 5-HT2A receptor binding was measured in rat brain frontal cortex membrane preparation using tritiated ketanserine /3-/2-(4-fluorobenzoyl)- -1-piperidinyl/ethyl-2,4-(1H,3H)-quinazoline-dione/(60-90 Ci/mmole) as ligand. 5-HT2C receptor binding was measured in pig brain choroid plexus membrane preparation using tritiated mesulergine /N'-/(8)-1,6-dimethyl-ergoline-8-yl/-N,N-dimethylsulfamide (70-85 Ci/mmole) as the ligand. Non-specific binding to 5-HT2A and 5-HT2C receptors were determined in the presence of 10 micro M cyproheptadine/4-(5H-dibenzo/a,d/cycloheptene-5-ylidene)-1-methylpiperidine/ and 1 micro M mianserine/1,2,3,4,10,14b-hexahydro-2-methyldibenzo-/c,f/pyrazino/1,2-a/azepine/, respectively. The final incubation volumes were 250 and 1000 microlitres. Samples were incubated for 15 and 30 minutes at 37° C. Incubation was stopped by adding 9 ml of ice-cold 50 mM tris(hydroxymethyl)-aminomethane hydrochloride (pH=7.7) to the reaction mixture. The samples were rapidly filtered through Whatman GF/B glass fiber filters using reduced pressure. Before use, the filters were soaked in a 0.05% poly-ethyleneimine solution for 2 to 3 hours. Radioactivity of the filters was determined by a scintillation spectrometer.

[2] = molecular target: T2, 5-HT2A receptor (Rattus norvegicus, UniProt P14842); test: 5-HT2A receptor binding ([3H]ketanserine, rat brain frontal cortex membrane preparation); details: tritiated ketanserine, 37° C., read-out: Inhibition of receptor binding of the radioactive ligand, 5-HT2A (Ki)
T2 construct: rat brain frontal cortex membrane preparation; from tissue; host or cells: rat brain frontal cortex membrane preparation
T2 sequence (P14842 whole entry): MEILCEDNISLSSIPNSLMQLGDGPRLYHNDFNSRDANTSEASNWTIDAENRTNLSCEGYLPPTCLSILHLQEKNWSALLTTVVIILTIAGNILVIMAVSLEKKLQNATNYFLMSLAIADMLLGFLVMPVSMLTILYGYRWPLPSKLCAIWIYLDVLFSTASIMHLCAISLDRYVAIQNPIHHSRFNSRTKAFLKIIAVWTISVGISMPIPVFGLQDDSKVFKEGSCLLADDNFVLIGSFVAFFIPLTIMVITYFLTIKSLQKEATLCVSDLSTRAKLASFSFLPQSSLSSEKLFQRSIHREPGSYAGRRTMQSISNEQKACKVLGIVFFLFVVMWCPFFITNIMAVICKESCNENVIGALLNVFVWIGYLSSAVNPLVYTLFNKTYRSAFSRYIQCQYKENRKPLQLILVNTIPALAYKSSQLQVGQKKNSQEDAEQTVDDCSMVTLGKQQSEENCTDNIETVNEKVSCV
Description: as §1

[3] = tested on: rat stomach fundus smooth muscle; test: Inhibition of serotonin-induced contractions of isolated rat stomach fundus smooth muscle; format: cell-based, rat (male Wistar); details: 5-HT 10^-7 M, 37° C., read-out: Inhibition of 5-HT-evoked contractions of isolated rat stomach fundus, IC50
Description: The experiments were performed on male Wistar rats weighing 350 to 400 g. The animals were fasted for 24 hours before the experiments, however, they were allowed to drink tap water ad libitum. The method used was a modified version of Vane et al. /J. Pharmac. Chemother., 12, 344 (1957)/. The rats were killed by decapitation and their stomach was removed, and 3 mm wide and 20 to 30 mm long strips were cut in parallel with the greatest curvature of the stomach. The strips were incubated for 60 minutes in a 6 ml Lucite chamber filled with Tyrode solution (NaCl 136.9 mM, KCl2.7 mM, CaCl2 1.8 mM, MgCl2 1.0 mM, NaHCO3 11.9 mM, glucose 5.6 mM, NaH2 PO4 0.4 mM) warmed to 37° C. and bubbled with a gas consisting of 95% of oxygen and 5% of carbon dioxide. The strips were stretched with 0.5 g during the 60 minutes equilibration time and were washed every 20 minutes. The tension was measured isometrically by a strain gauge (Hugo Sachs) and was recorded on a Graphtech Mark VII 3101 polygraph.
Three control contractions were evoked by 5-HT added to the bath in 10^-7 M concentration (C1, C2, C3).
The effects of the test compounds were determined in 5 increasing concentrations (T2, T3, T4, T5, and T6). After determining the effect of two concentrations of the test compounds, the control 5-HT response was checked after each test measurement.
(§2) IC50 was calculated by nonlinear curve fitting of the inhibitory effect of increasing concentrations of the test compound.

[4] = molecular target: T3, 5-HT2A receptor (Oryctolagus cuniculus, UniProt G1SYA7); test: 5-HT2A receptor antagonistic effect: inhibition of 5-HT-evoked contractions on isolated rabbit aortic strips; format: cell-based, rabbit (New-Zealand, male, white); details: 5-HT 10^-6 M; phenoxybenzamine 10^-8 M; tranylcypramine 10^-7 M; 10 minutes incubation
T3 construct: The thoracic aorta segment after the aortic arch was removed; from tissue; host or cells: rabbit thoracic aorta, helical strips
T3 sequence (G1SYA7 1-469): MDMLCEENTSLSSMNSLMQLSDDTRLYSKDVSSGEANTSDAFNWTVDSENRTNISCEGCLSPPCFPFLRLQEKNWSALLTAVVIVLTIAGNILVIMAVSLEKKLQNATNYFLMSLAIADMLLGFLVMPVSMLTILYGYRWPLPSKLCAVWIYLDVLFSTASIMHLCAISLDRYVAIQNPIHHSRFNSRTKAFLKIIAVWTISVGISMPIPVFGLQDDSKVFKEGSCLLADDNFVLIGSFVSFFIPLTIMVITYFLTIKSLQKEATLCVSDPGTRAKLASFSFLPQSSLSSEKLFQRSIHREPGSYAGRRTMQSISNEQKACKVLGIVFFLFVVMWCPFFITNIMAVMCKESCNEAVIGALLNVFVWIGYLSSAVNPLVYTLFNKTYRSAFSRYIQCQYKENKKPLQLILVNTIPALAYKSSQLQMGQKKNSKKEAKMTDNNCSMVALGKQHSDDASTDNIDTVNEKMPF
Description: New-Zealand, male, white rabbits weighing 2.0 to 2.5 kg were killed by a blow on the head. The thoracic aorta segment after the aortic arch was removed and placed into a Krebs' solution (NaCl 118 mM, KCl 4.6 mM, NaHCO3 25 mM, glucose 10.5 mM, […] 1 mM, KH2PO4 1 mM, CaCl2 2.6 mM). The aorta was carefully cleaned from fat and connective tissue, and was cut into 3 mm wide and 30 mm long helical strips. Four strips were obtained from each rabbit. The strips were equilibrated at 37° C. for 60 minutes in an organ chamber filled with Krebs' solution. The strips were also oxygenated by bubbling carbogen gas (5% of carbon dioxide and 95% of oxygen) through the solution. The strips were stretched by 1 g tension.
The contractions were measured by a Hugo Sachs K-30 type strain gauge, and were registered on a Multicorder type polygraph. During the last 40 minutes of the equilibration, the MAO enzym inhibitor tranylcypramine (10^-7 M) /chemical name: (±)-trans-2-phenylcyclopropylamine/ was also added to the bath.
Any alpha-adrenergic effects of the test compounds were eliminated by 10^-8 M of phenoxybenzamine /N-(2-chloroethyl)-N-(1-methyl-2-phenoxyethyl)benzylamine/ /Clancy et al., J. Pharm. Exp. Ther., 233, 761 (1985). Testing of the serotonergic antagonistic effect was started at the 90th minute of incubation. The stability and reproducibility of the contractile response of the aortic strips to serotonin was tested by two consecutive application and wash-out procedures of 10^-6 M concentration of 5-HT, 40 minutes apart. […] 30 minutes after the second testing, a preset concentration of the test compound was added to the bath, and, after a 10 minutes incubation time, the response to 10^-6 M of 5-HT was determined in the presence of the compound to be tested.
Two different concentrations of a given compound were tested on each aortic strip by the above method. Reproducibility of the control 5-HT-evoked response was checked between testing the two concentrations of the compound.
as §2

[5] = tested on: human anxiety; details: cited from earlier work

Compound | Ki [1] [µM] | Ki [2] [µM] | IC50 [3] [µM] | IC50 [4] [µM] | effectiveness for the treatment of different forms of human anxiety [5]
Nc1nc(SCCN2CCN(Cc3ccc([N+](=O)[O-])cc3)CC2)nc(N)c1Cc1ccc(F)cc1 [Example 20, 2-[2-/4-(4-Nitrobenzyl)-1-piperazinyl/-ethylthio]-4,6-diamino-5-(4-fluorobenzyl)-pyrimidine] | > 0.1 | 0.203 | 0.56 | 1.5 | 
COc1ccc(Cc2c(N)nc(SCCN3CCN(Cc4ccccc4)CC3)nc2N)cc1 [Example 22, 2-/2-(4-Benzyl-1-piperazinyl)ethylthio/-4,6-diamino-5-(4-methoxybenzyl)pyrimidine] | > 0.1 | 0.056 | 0.32 | 0.42 | 
COc1cccc(CN2CCN(CCSc3nc(N)c(Cc4ccccc4OC)c(N)n3)CC2)c1 [Example 31, 2-[2-/4-(3-Methoxybenzyl)-1-piperazinyl/-ethylthio]-4,6-diamino-5-(2-methoxybenzyl)-pyrimidine] | 0.021 | > 0.1 |  | 0.73 | 
COc1cccc(CN2CCN(CCSc3nc(N)c(Cc4ccccc4Cl)c(N)n3)CC2)c1 [Example 44, 2-[2-/4-(3-Methoxybenzyl)-1-piperazinyl/-ethylthio]-4,6-diamino-5-(2-chlorobenzyl)-pyrimidine] | > 0.1 | 0.093 |  | 0.65 | 
Nc1nc(SCCN2CCN(Cc3ccccc3Cl)CC2)nc(N)c1Cc1ccccc1Cl [Example 45, 2-[2-/4-(2-Chlorobenzyl)-1-piperazinyl/ethylthio]-4,6-diamino-5-(2-chlorobenzyl)-pyrimidine] | 0.025 | 0.027 |  | 0.43 | 
Nc1nc(SCCN2CCN(Cc3ccc([N+](=O)[O-])cc3)CC2)nc(N)c1Cc1ccc(Cl)cc1 [Example 48, 2-[2-/4-(4-Nitrobenzyl)-1-piperazinyl/-ethylthio]-4,6-diamino-5-(4-chlorobenzyl)-pyrimidine] |  |  | 0.42 |  | 
CN(C)c1ccc(Cc2c(N)nc(SCCN3CCN(Cc4ccccc4F)CC3)nc2N)cc1 [Example 53, 2-[2-/4-(2-Fluorobenzyl)-1-piperazinyl/-ethylthio]-4,6-diamino-5-(4-dimethylamino-benzyl)pyrimidine] | > 0.1 | 0.015 |  | 0.47 | 
CN(C)c1ccc(Cc2c(N)nc(SCCN3CCN(Cc4cccc(Cl)c4)CC3)nc2N)cc1 [Example 56, 2-[2-/4-(3-Chlorobenzyl)-1-piperazinyl/-ethylthio]-4,6-diamino-5-(4-dimethylamino-benzyl)pyrimidine] | 0.057 | 0.038 |  | 0.9 | 
CN(C)c1ccc(Cc2c(N)nc(SCCN3CCN(Cc4ccc([N+](=O)[O-])cc4)CC3)nc2N)cc1 [Example 57, 2-[2-/4-(4-Nitrobenzyl)-1-piperazinyl/-ethylthio]-4,6-diamiiino-5-(4-dimethylamino-benzyl)pyrimidine] | 0.042 | > 0.1 | 0.89 | 0.89 | 
Nc1nc(SCCN2CCN(Cc3ccc([N+](=O)[O-])cc3)CC2)nc(N)c1Cc1ccc(Br)cc1 [Example 64, 2-[2-/4-(4-Nitrobenzyl)-1-piperazinyl/-ethylthio]-4,6-diamino-5-(4-bromo-benzyl)pyrimidine] |  |  | 0.68 |  | 
COc1cccc(CN2CCN(CCSc3nc(N)c(Cc4cc(OC)c(OC)c(OC)c4)c(N)n3)CC2)c1 [Example 65, 2-[2-/4-(3-Methoxybenzyl)-1-piperazinyl/-ethylthio]-4,6-diamino-5-(3,4,5-trimethoxy-benzyl)pyrimidine] | 0.042 | 0.034 |  | 0.17 | 
COc1cc(Cc2c(N)nc(SCCN3CCN(Cc4ccccc4Cl)CC3)nc2N)cc(OC)c1OC [Example 67, 2-[2-/4-(2-Chlorobenzyl)-1-piperazinyl/-ethylthio]-4,6-diamino-5-(3,4,5-trimethoxy-benzyl)pyrimidine] | 0.0086 | 0.0046 |  | 0.039 | 
COc1cc(Cc2c(N)nc(SCCN3CCN(Cc4ccc([N+](=O)[O-])cc4)CC3)nc2N)cc(OC)c1OC [Example 68, 2-[2-/4-(4-Nitrobenzyl)-1-piperazinyl/-ethylthio]-4,6-diamino-5-(3,4,5-trimethoxy-benzyl)pyrimidine] | > 0.1 | 0.021 |  | 0.78 | 
COc1cc(Cc2c(N)nc(SCCN3CCN(Cc4cccc(C(F)(F)F)c4)CC3)nc2N)cc(OC)c1OC [Example 69, 2-[2-/4-(3-Trifluoromethylbenzyl)-1-piperazinyl/ethylthio]-4,6-diamino-5-(3,4,5-trimethoxybenzyl)pyrimidine] | 0.026 | 0.038 |  | 0.096 | 
COc1ccc(Cc2c(N)nc(SCCN3CCN(Cc4ccccc4Cl)CC3)nc2N)cc1 [Example 72, 2-[2-/4-(2-Chlorobenzyl)-1-piperazinyl/-ethylthio]-4,6-diamino-5-(4-methoxy-benzyl)pyrimidine] | 0.02 | 0.024 |  | 0.084 | 
Cc1nc2sccn2c(=O)c1CCN1CCC(=C(c2ccc(F)cc2)c2ccc(F)cc2)CC1 [ritanserin, 6-[2-14-bis(4-fluorophenyl)methylene/-1-piperidinyl-ethyl]-7-7-methyl-5H-thiazolo/3,2-a/pirimidine-5-one] |  |  |  |  | effective for the treatment of different forms of human anxiety
